Measured values published in BindingDB's records for doi:10.1016/j.bmc.2010.04.075 (Chungnam National University, 2010).

Experiment: Inhibition of IL5-mediated proliferation of mouse Y16 cells by WST1 assay

Compound | IC50 [µM]
CCc1ccc(-c2coc3cccc(OCC4CCCCC4)c3c2=O)cc1 [5-(Cyclohexylmethoxy)-3-(4-ethylphenyl)-4H-chromen-4-one] | > 30
COc1ccc(-c2coc3cccc(OCC4CCCCC4)c3c2=O)cc1OC [5-(Cyclohexylmethoxy)-3-(3,4-dimethoxyphenyl)-4Hchromen-4-one] | > 30
O=C1/C(=C/c2ccccc2)Oc2cccc(OCC3CCCCC3)c21 [(Z)-2-(Benzylidene)-4-(cyclohexylmethoxy)benzofuran-3(2H)-one] | > 30
COc1cc(-c2coc3cccc(OCC4CCCCC4)c3c2=O)ccc1OCc1ccccc1 [3-(4-(Benzyloxy)-3-methoxyphenyl)-5-(cyclohexylmethoxy)-4H-chromen-4-one] | 17.4
COC(=O)c1ccc(/C=C2\Oc3cccc(OCC4CCCCC4)c3C2=O)cc1 [Methyl(Z)-4-[4-(cyclohexylmethoxy)-3-oxobenzofuran-2(3H)-ylidene]methylbenzoate] | > 30
O=C1/C(=C/c2ccc([N+](=O)[O-])cc2)Oc2cccc(OCC3CCCCC3)c21 [(Z)-4-(Cyclohexylmethoxy)-2-(4-nitrobenzylidene)benzofuran-3(2H)-one] | > 30
O=C1/C(=C/c2ccc(Cl)cc2)Oc2cccc(OCC3CCCCC3)c21 [(Z)-2-(4-Chlorobenzylidene)-4-(cyclohexylmethoxy)benzofuran-3(2H)-one] | > 30
O=Cc1ccc(/C=C2\Oc3cccc(OCC4CCCCC4)c3C2=O)cc1 [(Z)-4-{[4-(Cyclohexylmethoxy)-3-oxobenzofuran-2(3H)-ylidene]methyl}benzaldehyde] | > 30
CCc1ccc(/C=C2\Oc3cccc(OCC4CCCCC4)c3C2=O)cc1 [(Z)-4-(cyclohexylmethoxy)-2-(4-ethylbenzylidene)benzofuran-3(2H)-one] | > 30
COCOc1ccc(-c2coc3cccc(OCC4CCCCC4)c3c2=O)cc1 [5-(Cyclohexylmethoxy)-3-[4-(methoxymethoxy)phenyl]-4H-chromen-4-one] | > 30
COc1ccc(-c2coc3cccc(OCC4CCCCC4)c3c2=O)cc1 [5-(Cyclohexylmethoxy)-3-(4-methoxyphenyl)-4H-chromen-4-one] | > 30
COc1cc(-c2coc3cccc(OCC4CCCCC4)c3c2=O)ccc1O [5-(Cyclohexylmethoxy)-3-(4-hydroxy-3-methoxyphenyl)-4H-chromen-4-one] | > 30
